Target: α1β2γ2 GABAA receptor (Homo sapiens (Human), UniProt P14867+P47870)
Assay: Patch clamp electrophysiology of recombinant α1β2γ2 GABAA receptors in LTK cells
Assay type: cell-based
Details: for activity at 10 µM / Emax: LTK; for activity at 10 µM / α1β2γ2 GABA Qpatch in Ltk (Efficacy at 10 μm): 10 μM compound, Qpatch, Ltk cells, GABA EC20 2 μM; for activity at 10 µM: read-out: α1β2γ2 GABA Qpatch in Ltk (Efficacy at 10 μm); for Emax / EC50: potentiation of GABA EC20 (2 μM) current; for Emax: read-out: GABAa alpha1 (α1β2γ2) Emax (%); for EC50: read-out: GABAa alpha1 (α1β2γ2)EC50
Method: Cellular electrophysiology is used to measure the pharmacological properties of our GABAA receptor modulators in heterologous cell systems. Each compound is tested for its ability to affect GABA mediated currents at a submaximal agonist dose (GABA EC20=2 μM). LTK cells are stably transfected with the α1β2γ2 subunits of the GABA receptor and CHO cells are transiently transfected with the α4β3δ subunits via the Lipofecatamine method. Cells were passaged at a confluence of about 50-80% and then seeded onto 35 mm sterile culture dishes containing 2 ml culture complete medium without antibiotics or antimycotics. Confluent clusters of cells are electrically coupled (Pritchett et al., 1988). Because responses in distant cells are not adequately voltage clamped and because of uncertainties about the extent of coupling (Verdoorn et al., 1990), cells were cultivated at a density that enables the recording of single cells (without visible connections to other cells).
Whole cell currents were measured with HEKA EPC-10 amplifiers using PatchMaster software or by using the high throughput QPatch platform (Sophion). Bath solution for all experiments contained (in mM): NaCl 137 mM, KCl 4 mM, CaCl2 1.8 mM, MgCl2 1 mM, HEPES 10 mM, D-Glucose 10 mM, pH (NaOH) 7.4. In some cases 0.005% cremophor was also added. Intracellular (pipette) solution contained: KCl 130 mM, MgCl2 1 mM, Mg-ATP 5 mM, HEPES 10 mM, EGTA 5 mM, pH 7.2. During experiments, cells and solutions were maintained at room temperature (19° C.-30° C.). For manual patch clamp recordings, cell culture dishes were placed on the dish holder of the microscope and continuously perfused (1 ml/min) with bath solution. After formation of a Gigaohm seal between the patch electrodes and the cell (pipette resistance range: 2.5 MΩ-6.0 MΩ; seal resistance range: >1 GΩ) the cell membrane across the pipette tip was ruptured to assure electrical access to the cell interior (whole-cell patch-configuration). For experiments using the QPatch system, cells were transferred as suspension to the QPatch system in the bath solution and automated whole cell recordings were performed.
Cells were voltage clamped at a holding potential of −80 mV. For the analysis of test articles, GABA receptors were stimulated by 2 μM GABA after sequential pre-incubation of increasing concentrations of the test article. Pre-incubation duration was 30 s and the duration of the GABA stimulus was 2 s. Test articles were dissolved in DMSO to form stock solutions (10 mM). Test articles were diluted to 0.01, 0.1, 1, and 10 μM in bath solution. All concentrations of test articles were tested on each cell. The relative percentage potentiation was defined as the peak amplitude in response to GABA EC20 in the presence of the test article divided by the peak amplitude in response to GABA EC20 alone, multiplied by 100.

Row | SMILES | activity at 10 µM | other results
1 | C[C@@]1(O)CC[C@H]2[C@H](CC[C@@H]3[C@@H]2CC[C@]2(C)[C@@H](C(=O)Cn4nnc5ccccc54)CC[C@@H]32)C1 [SA-1] | > 500% | Emax: 500 to 1000%; EC50: 500 to 1000 nM
2 | C[C@@]1(O)CC[C@H]2[C@H](CC[C@@H]3[C@@H]2CC[C@]2(C)[C@@H](C(=O)Cn4ncc5ncccc54)CC[C@@H]32)C1 [SA-3] |  | α1β2γ2 GABA Qpatch in Ltk (Efficacy at 10 μm): C (“C” indicates an efficacy value of >500%); Emax: 500 to 1000%; EC50: 1000 to 2000 nM
3 | C[C@@]1(O)CC[C@H]2[C@H](CC[C@@H]3[C@@H]2CC[C@]2(C)[C@@H](C(=O)Cn4ncc5ccccc54)CC[C@@H]32)C1 [SA-5] |  | α1β2γ2 GABA Qpatch in Ltk (Efficacy at 10 μm): C (“C” indicates an efficacy value of >500%); Emax: 500 to 1000%; EC50: 1000 to 2000 nM
4 | C[C@@]1(O)CC[C@H]2[C@H](CC[C@@H]3[C@@H]2CC[C@]2(C)[C@@H](C(=O)Cn4ncc5c4CCCC5)CC[C@@H]32)C1 [SA-8] |  | α1β2γ2 GABA Qpatch in Ltk (Efficacy at 10 μm): B (“B” indicates an efficacy value of >100-500%); Emax: 0 to 500%; EC50: 1000 to 2000 nM
5 | C[C@@]1(O)CC[C@H]2[C@H](CC[C@@H]3[C@@H]2CC[C@]2(C)[C@@H](C(=O)Cn4ncc5cnccc54)CC[C@@H]32)C1 [SA-9] |  | α1β2γ2 GABA Qpatch in Ltk (Efficacy at 10 μm): B (“B” indicates an efficacy value of >100-500%)
6 | C[C@@]1(O)CC[C@H]2[C@H](CC[C@@H]3[C@@H]2CC[C@]2(C)[C@@H](C(=O)Cn4cc5cnccc5n4)CC[C@@H]32)C1 [SA-10] |  | α1β2γ2 GABA Qpatch in Ltk (Efficacy at 10 μm): C (“C” indicates an efficacy value of >500%)
7 | C[C@@]1(O)CC[C@H]2[C@H](CC[C@@H]3[C@@H]2CC[C@]2(C)[C@@H](C(=O)Cn4nnc5cnccc54)CC[C@@H]32)C1 [SA-12] | 100 to 500% | 
8 | C[C@@]1(O)CC[C@H]2[C@H](CC[C@@H]3[C@@H]2CC[C@]2(C)[C@@H](C(=O)Cn4nnc5ncccc54)CC[C@@H]32)C1 [SA-13] | > 500% | 
9 | C[C@@]1(O)CC[C@H]2[C@H](CC[C@@H]3[C@@H]2CC[C@]2(C)[C@@H](C(=O)Cn4nnc5cccnc54)CC[C@@H]32)C1 [SA-15] | > 500% | 
10 | C[C@@]1(O)CC[C@H]2[C@H](CC[C@@H]3[C@@H]2CC[C@]2(C)[C@@H](C(=O)Cn4ncc5cc(F)ccc54)CC[C@@H]32)C1 [SA-17] | 100 to 500% | 
11 | C[C@@]1(O)CC[C@H]2[C@H](CC[C@@H]3[C@@H]2CC[C@]2(C)[C@@H](C(=O)Cn4ncc5cccnc54)CC[C@@H]32)C1 [SA-19] |  | α1β2γ2 GABA Qpatch in Ltk (Efficacy at 10 μm): B (“B” indicates an efficacy value of >100-500%); Emax: 500 to 1000%; EC50: > 2000 nM
12 | C[C@@]1(O)CC[C@H]2[C@H](CC[C@@H]3[C@@H]2CC[C@]2(C)[C@@H](C(=O)Cn4ncc5ccncc54)CC[C@@H]32)C1 [SA-21] |  | α1β2γ2 GABA Qpatch in Ltk (Efficacy at 10 μm): B (“B” indicates an efficacy value of >100-500%)
13 | C[C@@]1(O)CC[C@H]2[C@H](CC[C@@H]3[C@@H]2CC[C@]2(C)[C@@H](C(=O)Cn4ncc5ccc(F)cc54)CC[C@@H]32)C1 [SA-23] | > 500% | 
14 | Cc1cc2cnn(CC(=O)[C@H]3CC[C@H]4[C@@H]5CC[C@@H]6C[C@](C)(O)CC[C@@H]6[C@H]5CC[C@]34C)c2cn1 [SA-25] | > 500% | 
15 | C[C@@]1(O)CC[C@H]2[C@H](CC[C@@H]3[C@@H]2CC[C@]2(C)[C@@H](C(=O)Cn4ncc5ncc(Cl)cc54)CC[C@@H]32)C1 [SA-27] | > 500% | 
16 | C[C@@]1(O)CC[C@H]2[C@H](CC[C@@H]3[C@@H]2CC[C@]2(C)[C@@H](C(=O)Cn4ncc5nccnc54)CC[C@@H]32)C1 [SA-29] | 100 to 500% | 
17 | C[C@@]1(O)CC[C@H]2[C@H](CC[C@@H]3[C@@H]2CC[C@]2(C)[C@@H](C(=O)Cn4ncc5ncncc54)CC[C@@H]32)C1 [SA-33] | 100 to 500% | 
18 | C[C@@]1(O)CC[C@H]2[C@H](CC[C@@H]3[C@@H]2CC[C@]2(C)[C@@H](C(=O)Cn4ncc5cncnc54)CC[C@@H]32)C1 [SA-36] | > 500% | 
19 | C[C@@]1(O)CC[C@H]2[C@H](CC[C@@H]3[C@@H]2CC[C@]2(C)[C@@H](C(=O)Cn4cc5cc(C#N)ccc5n4)CC[C@@H]32)C1 [SA-37] | > 500% | 

Row | SMILES | activity at 10 µM | other results
20 | C[C@@]1(O)CC[C@H]2[C@H](CC[C@@H]3[C@@H]2CC[C@]2(C)[C@@H](C(=O)Cn4ncc5cc(C#N)ccc54)CC[C@@H]32)C1 [SA-38] | > 500% | 
21 | C[C@@]1(O)CC[C@H]2[C@H](CC[C@@H]3[C@@H]2CC[C@]2(C)[C@@H](C(=O)Cn4nnc5ccc(Cl)cc54)CC[C@@H]32)C1 [SA-39] | 100 to 500% | 
22 | C[C@@]1(O)CC[C@H]2[C@H](CC[C@@H]3[C@@H]2CC[C@]2(C)[C@@H](C(=O)Cn4nnc5cc(Cl)ccc54)CC[C@@H]32)C1 [SA-40] | 100 to 500% | 
23 | Cc1ccc2nnn(CC(=O)[C@H]3CC[C@H]4[C@@H]5CC[C@@H]6C[C@](C)(O)CC[C@@H]6[C@H]5CC[C@]34C)c2c1 [SA-42] | 100 to 500% | 
24 | Cc1ccc2c(c1)nnn2CC(=O)[C@H]1CC[C@H]2[C@@H]3CC[C@@H]4C[C@](C)(O)CC[C@@H]4[C@H]3CC[C@]12C [SA-43] | 100 to 500% | 
25 | Cc1nn(CC(=O)[C@H]2CC[C@H]3[C@@H]4CC[C@@H]5C[C@](C)(O)CC[C@@H]5[C@H]4CC[C@]23C)c2ccccc12 [SA-45] | > 500% | 
26 | Cc1c2ccccc2nn1CC(=O)[C@H]1CC[C@H]2[C@@H]3CC[C@@H]4C[C@](C)(O)CC[C@@H]4[C@H]3CC[C@]12C [SA-46] | > 500% | 
27 | COc1ccc2nn(CC(=O)[C@H]3CC[C@H]4[C@@H]5CC[C@@H]6C[C@](C)(O)CC[C@@H]6[C@H]5CC[C@]34C)nc2c1 [SA-47] | > 500% | 
28 | C[C@@]1(O)CC[C@H]2[C@H](CC[C@@H]3[C@@H]2CC[C@]2(C)[C@@H](C(=O)Cn4nc5ccccc5c4O)CC[C@@H]32)C1 [SA-54] | > 500% | 
29 | C[C@@]1(O)CC[C@H]2[C@H](CC[C@@H]3[C@@H]2CC[C@]2(C)[C@@H](C(=O)Cn4nc(Cl)c5ccccc54)CC[C@@H]32)C1 [SA-55] | 100 to 500% | 
30 | C[C@@]1(O)CC[C@H]2[C@H](CC[C@@H]3[C@@H]2CC[C@]2(C)[C@@H](C(=O)Cn4nnc5ncc(Cl)cc54)CC[C@@H]32)C1 [SA-56] | 100 to 500% | 
31 | C[C@@]1(O)CC[C@H]2[C@H](CC[C@@H]3[C@@H]2CC[C@]2(C)[C@@H](C(=O)Cn4nc5ccc(F)cc5n4)CC[C@@H]32)C1 [SA-62] | 100 to 500% | 
32 | C[C@@]1(O)CC[C@H]2[C@H](CC[C@@H]3[C@@H]2CC[C@]2(C)[C@@H](C(=O)Cn4nnc5c(F)cccc54)CC[C@@H]32)C1 [SA-64] | 100 to 500% | 
33 | C[C@@]1(O)CC[C@H]2[C@H](CC[C@@H]3[C@@H]2CC[C@]2(C)[C@@H](C(=O)Cn4nnc5cccc(F)c54)CC[C@@H]32)C1 [SA-65] | > 500% | 
34 | Cc1cccc2c1nnn2CC(=O)[C@H]1CC[C@H]2[C@@H]3CC[C@@H]4C[C@](C)(O)CC[C@@H]4[C@H]3CC[C@]12C [SA-67] | > 500% | 
35 | C[C@@]1(O)CC[C@H]2[C@H](CC[C@@H]3[C@@H]2CC[C@]2(C)[C@@H](C(=O)Cn4nc5ccc(OC(F)(F)F)cc5n4)CC[C@@H]32)C1 [SA-72] | > 500% | 
36 | COc1cccc2nnn(CC(=O)[C@H]3CC[C@H]4[C@@H]5CC[C@@H]6C[C@](C)(O)CC[C@@H]6[C@H]5CC[C@]34C)c12 [SA-73] | 100 to 500% | 
37 | COc1cccc2c1nnn2CC(=O)[C@H]1CC[C@H]2[C@@H]3CC[C@@H]4C[C@](C)(O)CC[C@@H]4[C@H]3CC[C@]12C [SA-74] | 100 to 500% | 
38 | COc1cccc2nn(CC(=O)[C@H]3CC[C@H]4[C@@H]5CC[C@@H]6C[C@](C)(O)CC[C@@H]6[C@H]5CC[C@]34C)nc12 [SA-75] | 100 to 500% | 
